Measured values taken from patent publication US9914755B2, “Cyclosporin derivatives wherein the MeBmt sidechain has been cyclized” (Allergan, Inc., priority 2015, dated 2018).
Values after ≈ are worked out from the molar mass of the structure shown. Starred links: 1 amine or outer side, 2 acyl side, 3 side chain; linkers in the order of their positions; H or OH if unused. Non-standard residues stand in square brackets, D forms with d. Residues, ends and D or L forms follow the SMILES beside them. X1 = C[C@@H]1CCO[C@H]1[C@H](C(=O)[*:2])N(C)[*:1]; d(aThr) = C[C@@H](O)[C@@H](N)C(=O)O; NMeL = CN[C@@H](CC(C)C)C(=O)O; dNMeL = CN[C@H](CC(C)C)C(=O)O; dNMeV = CN[C@@H](C(=O)O)C(C)C; dNMeA = CN[C@H](C)C(=O)O

Legend:
[1] = molecular target: T1, Human recombinant cyclophilin A (CypA) (Homo sapiens, UniProt P62937); test: Protease-free PPIase assay, cyclophilin A; assay type: biochemical; conditions: human recombinant CypA, 10 °C, SUC-AAPF-pNA substrate; read-out: CypA Protease-free PPIase Assay Ki
T1 construct: purchased Sigma C3805
Method: (§1) Protease-Free PPIase Assay The protease-free PPIase assay measures the rate of cis to trans conversion of a peptide substrate catalyzed by the enzyme cyclophilin A or D. Addition of a cyclophilin inhibitor (e.g., a test compound) slows the catalyzed rate and a Ki value is obtained. 35 mM HEPES pH 7.8, filtered through a 0.2 μm filter. 50 μM DTT was added prior to use each day and then the buffer was stored on ice. […] Human recombinant 6-His tagged cyclophilin D (CypD), prepared by the University of Edinburgh, was used to generate CypD inhibition data. Succinimide-[…]-nitroanilide (SUC-AAPF-pNA) (from Bachem AG, L-1400), 20 mg/ml prepared in 0.5 M LiCl in trifluoroethanol. All readings were taken with an Agilent 8453 Spectrophotometer which consisted of a cuvette holder, stirrer and chiller to maintain a stirred cuvette temperature of 10.0±0.1° C. The temperature was monitored by the use of temperature probe. […] The inhibitor was diluted in 100% DMSO, and then added to the assay to a maximum final concentration of 0.5% DMSO in the assay. […] The absorbance was measured at 330 nm for 300 s or 500 s for blank runs (NOTE: the substrate was added in one quick injection and the measurements started immediately to minimize mixing errors). A first order rate equation was fitted to the absorbance data, for each concentration of inhibitor, to obtain the rate constant (the first 10 to 15 seconds were excluded, as mixing causes errors in this portion of the curve). The catalytic rate was calculated from the enzymatic rate constant minus the background rate constant. An exponential curve was generated using the catalytic rate constants versus the inhibitor concentration to obtain the Ki value for the inhibitor. The Ki value is indicative of the binding affinity between the test compound and cyclophilin A.

[2] = molecular target: T2, Human recombinant 6-His tagged cyclophilin D (CypD) (Homo sapiens, UniProt P30405); test: Protease-free PPIase assay, cyclophilin D; assay type: biochemical; conditions: human recombinant 6-His CypD, 10 °C, SUC-AAPF-pNA substrate; read-out: CypD Protease-free PPIase Assay Ki
T2 construct: 6-His
Method: as §1

calcineurin = molecular target: T3, calcineurin (Homo sapiens, UniProt P62937+P63098+Q08209); test: Calcineurin Phosphatase (CaN) Assay; assay type: biochemical; conditions: in the presence of CypA, 1:1 complex of inhibitor with CypA
T3 construct: purchased Enzo Life Sciences BML-AK804
Excerpt: Calcineurin Phosphatase (CaN) Assay
The calcineurin phosphatase assay is a means for estimating the immunosuppressive potential of a test compound. Calcineurin is a serine-threonine protein phosphatase that on activation dephosphorylates members of the nuclear factor of activated T cells (NFAT), which are important in T lymphocyte activation.
To investigate the immunosuppressive potential of exemplary compounds of Formula I, which are cyclosporin analogs, their ability to inhibit calcineurin activity was measured in the presence and absence of CypA.
The CaN assay kit used is based on a colorimetric assay for measuring calcineurin phosphatase activity, and it is commercially available (Enzo Life Sciences and Calbiochem). Calmodulin is also required for calcineurin activity, and RII phosphopeptide is used as an efficient peptide substrate for calcineurin. […] The detection of free phosphate released is based on the classic Malachite green assay.
Enzo Life Sciences CaN Assay Kit: BML-AK804
For samples ‘without CypA’, a 4-point dilution series of the inhibitor was prepared in duplicate to obtain a final assay concentration of 10, 1, 0.1 and 0.01 μM. For samples ‘with CypA’, a 7-point dilution series was prepared to obtain a 1:1 complex of the inhibitor with CypA; the inhibitor and CypA final assay concentrations of 10, 3.33, 1.11, 0.37, 0.12, 0.04, 0.014 μM were prepared.
using the half area 96 well plates supplied with the kit, 10 μl UPW was added to duplicate wells to provide the non-inhibited control. 10 μl of the inhibitor or the inhibitor/CypA complex was added to the appropriate sample wells. 25 μl of the 2× assay buffer with calmodulin (CaM) was added to all wells, then 5 μl of calcineurin phosphatase (CaN) was added to all wells (40 U per well final concentration) except duplicate ‘no calcineurin blank’ wells to which 5 μL 1× assay buffer was added. The assay plate was placed in an oven at 30° C. for 15 minutes to equilibrate to the reaction temperature. The reaction was started by the addition of 10 μl RII-peptide (0.15 mM final concentration). The reaction was allowed to proceed at 30° C. for a time period in which the reaction is linear for about 60 minutes. The reaction was then terminated by adding 100 μl of the Malachite Green reagent. The color was allowed to develop for 15-30 minutes at room temperature before the absorbance at 620 nm was measured using a plate reader (Molecular Devices—SpectraMax M5). The data were analyzed by subtracting ‘no calcineurin blank’ from all the absorbance readings and plotting the background corrected absorbances against Log10 inhibitor concentration. A sigmoidal-dose response curve was fitted to the data using GraphPad Prism Software.
It exerts its immunosuppressive activity by binding to CypA to form a complex, which then binds to calcineurin and thereby inhibits calcineurin activity.

physchem = conditions: 25 °C, pH 7.4, aqueous buffer, kinetic from dmso stock
Method: The aqueous solubility of a compound of Formula I in buffer (pH 7.8) was measured by recording the onset of precipitation of the compound as a function of increasing concentration. The onset of precipitation, if it occurred, was detected by an increase in absorbance at 650 nm.
Stock solutions of Control and Test Compounds: 10 mM in 100% DMSO.
10 mM stock solutions of control and test compounds were prepared in 100% DMSO.
Assay buffer (247.5 μl) was placed into a flat bottomed transparent 96-well plate. For blank samples, DMSO (2.5 μl) was added. For test and control samples, 2.5 μl of the appropriate DMSO dilution stocks were added to the appropriate well. All test and control compounds were performed in triplicate.
The plates were sealed with adhesive plate seal and shaken at 250 rpm at 25° C. for 18 h on a plate shaker. After incubation, the plate seals were taken off and any bubbles observed in wells removed. The plates were read on a SpectraMaxM5 with a 5 s pre-shake at 650 nm.
Data files were transferred to the appropriate worksheet and the solubility range of the compounds was calculated from the data.

T2 sequence (P30405 30-207): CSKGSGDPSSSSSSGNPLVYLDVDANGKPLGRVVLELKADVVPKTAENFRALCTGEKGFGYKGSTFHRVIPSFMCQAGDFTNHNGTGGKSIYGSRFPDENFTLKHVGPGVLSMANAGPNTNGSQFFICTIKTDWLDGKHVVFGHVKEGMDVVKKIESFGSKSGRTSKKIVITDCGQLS
T1 sequence (P62937 whole entry): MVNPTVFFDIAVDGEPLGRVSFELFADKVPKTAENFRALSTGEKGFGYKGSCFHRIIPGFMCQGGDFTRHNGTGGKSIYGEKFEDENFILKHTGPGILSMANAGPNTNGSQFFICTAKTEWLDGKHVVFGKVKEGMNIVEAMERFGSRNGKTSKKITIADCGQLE

Ki [1]	Ki [2]	IC50 (calcineurin)	solubility at 18 h (physchem)	Molecule
49 nM	12 nM	> 10000 nM	–	CC[C@H]1NC(=O)[C@@H]([C@@H]2OC(O)C[C@H]2C)N(C)C(=O)[C@@H](C(C)C)N(C)C(=O)[C@@H](CC(C)C)N(C)C(=O)[C@@H](CC(C)C)N(C)C(=O)[C@H](C)NC(=O)[C@@H](C)NC(=O)[C@@H](CC(C)C)N(C)C(=O)[C@@H](C(C)C)NC(=O)[C@H](CC(C)C)N(C)C(=O)[C@@H](C)N(C)C1=O (stereo partly drawn) [Compound 12, [(2R)-2-[(2R,3R)-5-hydroxy-3-methyl-tetrahydrofuran-2-yl]-2-(methylamino)acetic acid]^1[(R)-methyl-Sar]^3 cyclosporin A]
237 nM	39 nM	> 10000 nM	50 µM (≈ 60.8 µg/mL)	CCC[C@@H]1C(=O)N(C)[C@@H](CC(C)C)C(=O)N[C@H](C(C)C)C(=O)N(C)[C@H](CC(C)C)C(=O)N[C@H](C)C(=O)N[C@@H](C)C(=O)N(C)[C@H](CC(C)C)C(=O)N(C)[C@H](CC(C)C)C(=O)N(C)[C@H](C(C)C)C(=O)N(C)[C@H]([C@@H]2OCC[C@H]2C)C(=O)N[C@H](CC)C(=O)N1C [Compound 2, [(2S)-2-(methylamino)-2-[(2R,3R)-3-methyltetrahydrofuran-2-yl]acetic acid]^1 [(R)-propyl-Sar]^3 cyclosporin A]
304 nM	42 nM	8160 nM	–	[(2R)-2-[(5R,6R)-3,5-dimethyl-2-oxo-1,3-oxazinan-6-yl]-2-(methylamino)acetic acid]^1 cyclosporin A [Compound 21]
1500 nM	105 nM	> 10000 nM	> 100 µM	CC(C)C[C@@H]1C(=O)N(C)[C@H](CC(C)C)C(=O)N(C)[C@H](C(C)C)C(=O)N(C)[C@H]([C@@H]2OCC[C@H]2C)C(=O)N[C@H]([C@@H](C)O)C(=O)N(C)CC(=O)N(C)[C@@H](CC(C)C)C(=O)N[C@H](C(C)C)C(=O)N(C)[C@H](CC(C)C)C(=O)N[C@H](C)C(=O)N[C@@H](C)C(=O)N1C [Compound 8, [(2S)-2-(methylamino)-2-[(2R,3R)-3-methyltetrahydrofuran-2-yl]acetic acid]^1 cyclosporin C]
270 nM	18 nM	> 10000 nM	–	CC(C)C[C@@H]1C(=O)N(C)[C@H](CC(C)C)C(=O)N(C)[C@H](C(C)C)C(=O)N(C)[C@H]([C@@H]2OCC[C@H]2C)C(=O)N[C@H]([C@@H](C)O)C(=O)N(C)[C@H](C)C(=O)N(C)[C@@H](CC(C)C)C(=O)N[C@H](C(C)C)C(=O)N(C)[C@H](CC(C)C)C(=O)N[C@H](C)C(=O)N[C@@H](C)C(=O)N1C [Compound 11, [(2S)-2-(methylamino)-2-[(2R,3R)-3-methyltetrahydrofuran-2-yl]acetic acid]^1 [(R)-methyl-Sar]^3 cyclosporin C] (cyclo(A[dNMeL][dNMeL][dNMeV][X1][d(aThr)][dNMeA][NMeL][dV][dNMeL][dA]))
386 nM	560 nM	6670 nM	–	CC[C@H]1NC(=O)[C@@H]([C@@H]2OCCCC[C@H]2C)N(C)C(=O)[C@@H](C(C)C)N(C)C(=O)[C@@H](CC(C)C)N(C)C(=O)[C@@H](CC(C)C)N(C)C(=O)[C@H](C)NC(=O)[C@@H](C)NC(=O)[C@@H](CC(C)C)N(C)C(=O)[C@@H](C(C)C)NC(=O)[C@H](CC(C)C)N(C)C(=O)CN(C)C1=O [Compound 16, [(2S)-2-(methylamino)-2-[(2R,3R)-3-methyloxepan-2-yl]acetic acid]^1 cyclosporin A]
38 nM	46 nM	5290 nM	–	CC[C@H]1NC(=O)[C@@H]([C@@H]2OCCC[C@H]2C)N(C)C(=O)[C@@H](C(C)C)N(C)C(=O)[C@@H](CC(C)C)N(C)C(=O)[C@@H](CC(C)C)N(C)C(=O)[C@H](C)NC(=O)[C@@H](C)NC(=O)[C@@H](CC(C)C)N(C)C(=O)[C@@H](C(C)C)NC(=O)[C@H](CC(C)C)N(C)C(=O)[C@@H](C)N(C)C1=O [Compound 15, [(2S)-2-(methylamino)-2-[(2R,3R)-3-methyltetrahydropyran-2-yl]acetic acid]^1 [(R)-methyl-Sar]^3 cyclosporin A]
105 nM	85 nM	7740 nM	–	CC[C@H]1NC(=O)[C@@H]([C@@H]2OCCCC[C@H]2C)N(C)C(=O)[C@@H](C(C)C)N(C)C(=O)[C@@H](CC(C)C)N(C)C(=O)[C@@H](CC(C)C)N(C)C(=O)[C@H](C)NC(=O)[C@@H](C)NC(=O)[C@@H](CC(C)C)N(C)C(=O)[C@@H](C(C)C)NC(=O)[C@H](CC(C)C)N(C)C(=O)[C@@H](C)N(C)C1=O [Compound 17, [(2S)-2-(methylamino)-2-[(2R,3R)-3-methyloxepan-2-yl]acetic acid]^1 [(R)-methyl-Sar]^3 cyclosporin A]
414 nM	840 nM	> 10000 nM	–	CC(C)C[C@@H]1C(=O)N(C)[C@H](CC(C)C)C(=O)N(C)[C@H](C(C)C)C(=O)N(C)[C@H]([C@@H]2OC(O)C[C@H]2C)C(=O)N[C@H](C(C)C)C(=O)N(C)CC(=O)N(C)[C@@H](CC(C)C)C(=O)N[C@H](C(C)C)C(=O)N(C)[C@H](CC(C)C)C(=O)N[C@H](C)C(=O)N[C@@H](C)C(=O)N1C (stereo partly drawn) [Compound 13, [(2S)-2-[(2R,3R)-5-Hydroxy-3-methyl-tetrahydrofuran-2-yl]-2-(methylamino)acetic acid]^1 cyclosporin D]
509 nM	920 nM	> 10000 nM	–	CC[C@H]1NC(=O)[C@@H]([C@@H]2OCC[C@H]2C)N(C)C(=O)[C@@H](C(C)C)N(C)C(=O)[C@@H](CC(C)C)N(C)C(=O)[C@@H](CC(C)C)N(C)C(=O)[C@H](C)NC(=O)[C@@H](C)NC(=O)[C@@H](CC(C)C)N(C)C(=O)[C@@H](C(C)C)NC(=O)[C@H](CC(C)C)N(C)C(=O)CN(C)C1=O [Compound 4, [(2S)-2-(methylamino)-2-[(2R,3R)-3-methyltetrahydrofuran-2-yl]acetic acid]^1 cyclosporin A]
754 nM	280 nM	> 10000 nM	–	CC[C@H]1NC(=O)[C@@H]([C@@H]2OCN(C)C[C@H]2C)N(C)C(=O)[C@@H](C(C)C)N(C)C(=O)[C@@H](CC(C)C)N(C)C(=O)[C@@H](CC(C)C)N(C)C(=O)[C@H](C)NC(=O)[C@@H](C)NC(=O)[C@@H](CC(C)C)N(C)C(=O)[C@@H](C(C)C)NC(=O)[C@H](CC(C)C)N(C)C(=O)CN(C)C1=O [Compound 23, [(2R)-2-[(5R,6R)-3,5-dimethyl-1,3-oxazinan-6-yl]-2-(methylamino)acetic acid]^1 cyclosporin A]
